Patent US6235761A, “Compound, composition and method for treating cancer” (priority 1999, dated 2001)

Tests used:
[1] = test system: mammals, especially humans; assay: Neurotoxicity of penclomedine versus 4-demethylpenclomedine; format: in vivo, human; settings: for neurotoxicity versus metabolite levels: administration of penclomedine to patients
Protocol: It has been observed that 4-demethylpenclomedine was present in clinical samples and continued to be present in the plasma for longer than 24 hours.

[2] = test system: MX-1 Mammary Tumor Xenograft; assay: Subcutaneously-implanted MX-1 mammary tumor xenograft in mice (Table 1); format: in vivo, human tumor in mice; settings: for Days to 2 Doublings / Non-Specific Deaths / Total / Tumor Free Survival/Total / Tumor Delay (T-C) / Tumor Regression, Complete / Tumor Regression, Partial / Duration of regression, Med: x5, from Day 12; for Tumor Delay (T-C): control 8.0 days; for Tumor Regression, Complete / Tumor Regression, Partial: number of mice
Protocol: (§1) This Example illustrates the efficacy of penclomedine and 4-demethylpenclomedine in the treatment of cancer. MX-1 mammary tumor xenograft was subcutaneously implanted into mice, and the mice were exposed to the compounds. The testing of the mice was performed following a published procedure. See, e.g., Plowman et al., supra; Geran et al., Cancer Chemother. Rep., Part 2, 1-55 (1972); Developmental Therapeutics Program, Division of Cancer Treatment, NCI, in In Vivo Models 1976-1982, NIH Publication No. 84-2635, Washington D.C., U.S. Govt. Printing Office (1984).
Response of Subcutaneously-Implanted MX-1 Mammary Tumor Xenograft to
^1 Treatment started on Day 12 following tumor implant.
^2 Nonspecific deaths: A treated, tumored animal was presumed to be a
^3 Tumor regression was scored (excluding nonspecific deaths),
^4 Duration of regression: the interval during which a tumor classified
^5 Evaluation size: this value is the tumor mass selected at one or two
^6 Time required for tumor mass doubling: the time required for a tumor
^7 T-C (days): the difference in the median of times postimplant for […]

[3] = Distribution of penclomedine and its metabolites in mouse tissues; format: in vivo, CD2F1 mice; settings: for level in liver: mouse liver versus other tissues
Protocol: CD2F1 Mice were obtained from Harlan Sprague-Dawley (Frederick, Md.). During the course of this study, mice were housed in polyethylene shoe box cages without bedding and given access to food and water. Four mice were used per time point.
^14 C-Penclomedine (specific activity 17.6 and 18.9 mCi/mM, labeled at CCl3) was obtained from Research Triangle Institute (Research Triangle Park, N.C.) and stored at -20° C. The site of radiolabel has been conserved in all penclomedine metabolites identified to date. The composition of the radioactive material was determined to be 99% ^14 C-penclomedine, by HPLC coupled with radiochemical detection.
^14 C-penclomedine (1 mCi/ml in ethanol) was added to the clinical penclomedine emulsion to give an activity of […] (4% ethanol final concentration). The mice were administered the above penclomedine formulation at 40 mg/kg (120 mg/m^2, […]) either intravenously via tail vein or orally via gavage. At 1, 2, 4, and 22 hours after intravenous administration and 2,4, 6, and 22 hours after oral administration, animals were euthanized with carbon dioxide and blood tissues were collected. Blood tissues from each time point were pooled. Blood was centrifuged and plasma and red cells were separated; tissues were homogenized in 3 volumes of 100 mM ammonium formate buffer pH 6.5. Urinary output was estimated by washing the cages with water after removing food and feces and concentrating these cage washings.
A 1 ml aliquot of tissue homogenate or a […] was acidified with 200 ml of 0.7 M ammonium phosphate pH 2.7, then 3 ml of ethyl acetate was added. This mixture was vortexed, centrifuged and the organic layer was collected. Fifty microliters of DMSO were added, and the ethyl acetate was concentrated to approximately […] with a stream of dry nitrogen. Fifty microliters of acetonitrile were added to this residue, and the resulting solution was analyzed by HPLC. Human plasma was processed identically to mouse plasma with the exception that 500 ml of plasma was extracted. Concentrated cage washings were analyzed by HPLC without further processing.
Plasma and tissue protein binding data were measured on the residue of the above extractions. The aqueous phase was washed with 5 ml of ethanol, centrifuged, and the ethanol insoluble precipitate was washed again with 5 ml ethanol. After centrifugation the pellet was resuspended in 0.5 ml 6 M guanidinium chloride, added to 10 ml 3a70B scintillation cocktail (Research Products International Corp., Mount Prospect, Ill.), and counted for ^14 C.
HPLC Assays: The HPLC system consisted of a Hewlett-Packard Series II 1090 liquid chromatograph with diode array detector (Hewlett-Packard, Palo Alto, Calif.). The column used was an Alltech Adsorbosphere HS C18 5 m 250×4.6 mm column (Alltech Associates, Deerfield, Ill.). The system used a gradient elution consisting of 100% 10 mM ammonium phosphate buffer pH 2.7 progressing to 100% acetonitrile over 25 minutes at 1 ml/min. Detection was performed by means of ultraviolet absorbance at 240 nm as well as by means of radioactivity using a Radiomatic Flo-One/Beta A140 radioactive flow detector (Packard Instrument Co., Downers Grove, Ill.) equipped with a […] and Flo-Scint VI scintillation cocktail at a 2:1 ratio.
^14 C-Penclomedine derived radioactivity was determined in mouse urine samples collected at 1, 2, 4, and 22 hours following intravenous and oral administration of^14 C-penclomedine. […] There were considerable differences in metabolite distribution among the different tissues. […] Most compounds present in the 2 hour samples were detectable in the 22 hour samples at levels from 10% to 50% of those seen at 2 hours.

MX-1 mammary tumor cells = assay: ic MX-1 mammary tumor in athymic mice, increased life span (Table 2); format: in vivo, human tumor in athymic mice (Ncr-nu); settings: days 1-5
Protocol: as §1
This Example further illustrates the efficacy of penclomedine and 4-demethylpenclomedine in the treatment of cancer. The compounds were tested in vivo on mice by the procedure set forth in Example 2. The results obtained are set forth in Table 2 and confirm that 4-demethyl-penclomedine is active against cancer, particularly mammary, colon, and renal cancer.
^a Athymic mice (Ncr-nu) were implanted either intracranially (ic) with
18 human MX-1 mammary tumor cells or subcutaneously (sc) with fragments of
human tumors (CAKI-, renal; HT29, colon; MX-1, mammary).
^c % ILS (increased life span) values are not provided where the mice
were sacrificed when tumors reached 4 g mass.

[4] = 135 mg/kg/dose oral, highest dosage level

COc1nc(C(Cl)(Cl)Cl)c(Cl)c(OC)c1Cl [Penclomedine, 3,5-dichloro-2,4-dimethoxy-6-(trichloromethyl)pyridine]
neurotoxicity versus metabolite levels [1]: neurotoxicity did not increase while levels of this metabolite increased to several times the plasma levels of the parent drug
neurotoxicity to mammals, especially humans ([1]; in vivo): neurotoxic to mammals, especially to humans
Days to 2 Doublings ([2]; 60 mg/kg IP): > 49.0 days
Non-Specific Deaths / Total ([2]; 60 mg/kg IP): 0/5
Tumor Free Survival/Total ([2]; 60 mg/kg IP): 4/5
Tumor Delay (T-C) ([2]; 60 mg/kg IP): > 41.0 days
Tumor Regression, Complete ([2]; 60 mg/kg IP): 5
Tumor Regression, Partial ([2]; 60 mg/kg IP): 0
Days to 2 Doublings ([2]; 90 mg/kg IP): > 49.0 days
Non-Specific Deaths / Total ([2]; 90 mg/kg IP): 0/5
Tumor Free Survival/Total ([2]; 90 mg/kg IP): 5/5
Tumor Delay (T-C) ([2]; 90 mg/kg IP): > 41.0 days
Tumor Regression, Complete ([2]; 90 mg/kg IP): 5
Tumor Regression, Partial ([2]; 90 mg/kg IP): 0
Days to 2 Doublings ([2]; 135 mg/kg IP): > 49.0 days
Non-Specific Deaths / Total ([2]; 135 mg/kg IP): 0/5
Tumor Free Survival/Total ([2]; 135 mg/kg IP): 5/5
Tumor Delay (T-C) ([2]; 135 mg/kg IP): > 41.0 days
Tumor Regression, Complete ([2]; 135 mg/kg IP): 5
Tumor Regression, Partial ([2]; 135 mg/kg IP): 0
survival rate, compared with 4-demethylpenclomedine ([2]; Table 1): slightly higher survival rate
tumor growth delay, comparison of the two compounds ([2]; Table 1): identical tumor growth delay
Tissue Concentration ([3]; brain, 2 hours, i.v. 14C-penclomedine 40 mg/kg): 1.30 nmoles/gram wet tissue
Tissue Concentration ([3]; brain, 2 hours, p.o. 14C-penclomedine 40 mg/kg): 2.16 nmoles/gram wet tissue
Tissue Concentration ([3]; carcass, 2 hours, i.v. 14C-penclomedine 40 mg/kg): 14.8 nmoles/gram wet tissue
Tissue Concentration ([3]; carcass, 2 hours, p.o. 14C-penclomedine 40 mg/kg): 55.2 nmoles/gram wet tissue
Tissue Concentration ([3]; carcass, 22 hours, i.v. 14C-penclomedine 40 mg/kg): 5.15 nmoles/gram wet tissue
Tissue Concentration ([3]; carcass, 22 hours, p.o. 14C-penclomedine 40 mg/kg): 2.16 nmoles/gram wet tissue
Tissue Concentration ([3]; fat, 2 hours, i.v. 14C-penclomedine 40 mg/kg): 15.8 nmoles/gram wet tissue
Tissue Concentration ([3]; fat, 2 hours, p.o. 14C-penclomedine 40 mg/kg): 18.55 nmoles/gram wet tissue
Tissue Concentration ([3]; fat, 22 hours, i.v. 14C-penclomedine 40 mg/kg): 8.90 nmoles/gram wet tissue
Tissue Concentration ([3]; kidney, 2 hours, i.v. 14C-penclomedine 40 mg/kg): 6.45 nmoles/gram wet tissue
Tissue Concentration ([3]; kidney, 2 hours, p.o. 14C-penclomedine 40 mg/kg): 7.30 nmoles/gram wet tissue
Tissue Concentration ([3]; kidney, 22 hours, i.v. 14C-penclomedine 40 mg/kg): 1.21 nmoles/gram wet tissue
Tissue Concentration ([3]; kidney, 22 hours, p.o. 14C-penclomedine 40 mg/kg): 0.85 nmoles/gram wet tissue
Tissue Concentration ([3]; liver, 2 hours, i.v. 14C-penclomedine 40 mg/kg): 0.69 nmoles/gram wet tissue
Tissue Concentration ([3]; liver, 2 hours, p.o. 14C-penclomedine 40 mg/kg): 1.35 nmoles/gram wet tissue
Tissue Concentration ([3]; liver, 22 hours, p.o. 14C-penclomedine 40 mg/kg): 0.38 nmoles/gram wet tissue
level in liver ([3]; 14C-penclomedine dosed): the lowest levels of penclomedine
tissues with highest levels ([3]; mouse, 14C-penclomedine dosed): Highest levels of penclomedine were detected in the fat and carcass
detectability in 2 hour tissue samples ([3]; mouse, 2 hours): All 2 hour tissue samples contained detectable amounts of penclomedine
Median % ILS (dying mice only) (MX-1 mammary tumor cells; 90 mg/kg/dose IP): +88%
Tumor-Free Survival/Total (MX-1 mammary tumor cells; 90 mg/kg/dose IP): 0/5
Median % ILS (dying mice only) (MX-1 mammary tumor cells; 90 mg/kg/dose oral): +72%
Tumor-Free Survival/Total (MX-1 mammary tumor cells; 90 mg/kg/dose oral): 0/5

COc1nc(C(Cl)(Cl)Cl)c(Cl)c(O)c1Cl [4-Demethylpenclomedine, 3,5-dichloro-2-methoxy-4-hydroxy-6-(trichloromethyl)-pyridine]
neurotoxicity versus metabolite levels [1]: the levels of this metabolite increased as toxicity due to penclomedine resolved
Days to 2 Doublings ([2]; 60 mg/kg IP): 23.4 days
Non-Specific Deaths / Total ([2]; 60 mg/kg IP): 0/5
Tumor Free Survival/Total ([2]; 60 mg/kg IP): 2/5
Tumor Delay (T-C) ([2]; 60 mg/kg IP): 15.4 days
Tumor Regression, Complete ([2]; 60 mg/kg IP): 2
Tumor Regression, Partial ([2]; 60 mg/kg IP): 0
Days to 2 Doublings ([2]; 90 mg/kg IP): > 49.0 days
Duration of regression, Med ([2]; 90 mg/kg IP): 32.5 days
Non-Specific Deaths / Total ([2]; 90 mg/kg IP): 0/5
Tumor Free Survival/Total ([2]; 90 mg/kg IP): 3/5
Tumor Delay (T-C) ([2]; 90 mg/kg IP): > 41.0 days
Tumor Regression, Complete ([2]; 90 mg/kg IP): 5
Tumor Regression, Partial ([2]; 90 mg/kg IP): 0
Days to 2 Doublings ([2]; 135 mg/kg IP): > 49.0 days
Duration of regression, Med ([2]; 135 mg/kg IP): 35.7 days
Non-Specific Deaths / Total ([2]; 135 mg/kg IP): 1/5
Tumor Free Survival/Total ([2]; 135 mg/kg IP): 3/5
Tumor Delay (T-C) ([2]; 135 mg/kg IP): > 41.0 days
Tumor Regression, Complete ([2]; 135 mg/kg IP): 4
Tumor Regression, Partial ([2]; 135 mg/kg IP): 0
tumor growth delay, comparison of the two compounds ([2]; Table 1): identical tumor growth delay
accumulation in fatty tissues compared with penclomedine ([3]; mouse): does not accumulate in fatty tissues as much as penclomedine
level in liver ([3]; 14C-penclomedine dosed): liver contained the highest levels of demethylpenclomedine
Median % ILS (dying mice only) (MX-1 mammary tumor cells; 90 mg/kg/dose IP): +60%
Tumor-Free Survival/Total (MX-1 mammary tumor cells; 90 mg/kg/dose IP): 0/5
Median % ILS (dying mice only) (MX-1 mammary tumor cells; [4]): +66%
Tumor-Free Survival/Total (MX-1 mammary tumor cells; [4]): 1/5
